The values below are quoted from earlier work in patent US10894072B2, “Compositions and methods for treating fibromyalgia” (Quality IP Holdings, LLC, priority 2017, dated 2021).

One data set relates to hGH. The settings on record: for Increase in hGH: other amino acids.
For data set [1], the system named is fibromyalgia.
Data set [2] has as its system fibromyalgia. This is another data set of the same source.
The conditions of data set [3]: hGH-deficient adults, within months of treatment.
For data set [4], the system named is fibromyalgia. The source holds these as a separate data set.
The next data set deals with IGF-1 and IGF-BP3. The settings on record: patients with fibromyalgia, 4 days treatment.
For data set [5] the following is noted: subcutaneous injection of 0.06 IU, hGH deficient subjects.

In the case of `N=C(N)NCCC[C@H](N)C(=O)O` [arginine], the “Elevation of serum hGH levels” value with hGH (30 g, males) is recorded as 8.6 fold. Also, the “Increase of hGH levels” value in the data set on hGH (intravenous infusion of 183 mg/kg body weight, females) is recorded as greater than 20 fold.

In the case of `N[C@@H](Cc1c[nH]cn1)C(=O)O` [histidine], in the data set on hGH, the “Increase in hGH” value is recorded as “marked increases”.

Consider `NCCCC[C@H](N)C(=O)O` [lysine], for which the “Increase in hGH” value in the data set on hGH is listed as “marked increases”.

For the compound `CSCC[C@H](N)C(=O)O` [methionine], the “Increase in hGH” value with hGH was “marked increases”.

In the case of `NCCC[C@H](N)C(=O)O` [ornithine], the “Increase in hGH” value in the data set with hGH is reported as “marked increases”.

In the case of `N[C@@H](Cc1ccccc1)C(=O)O` [phenylalanine], in the data set with hGH, the “Increase in hGH” value is given as “marked increases”.

For the compound “hGH: human growth hormone, given by injection in cited studies”, the “Reduction in the mean number of tender points (pairs) compared to the control group” value in the data set with fibromyalgia [1] (end of one-year study, subcutaneous hGH added to standard therapy) is on record as 60%. For the same compound, the Tolerability entry in the data set with fibromyalgia [1] (human, in vivo) was “well tolerated”. Further, the “FIQ score and tender point score over the placebo group” value in the data set with fibromyalgia [2] (at nine months) was “significant improvement”. Further, the IGF-1 levels entry with fibromyalgia [2] (daily hGH injections) is “prompt and sustained increase”. For the same compound, in data set [3], the “Lean body mass, skin thickness and muscle mass” value was “gains”. Moreover, the Pain result in the data set with fibromyalgia [4] (hGH added to standard treatment, sustained action over time) is reported as “effective in reducing pain”. Moreover, the “FIQ scores compared with placebo group” value in the data set on fibromyalgia [4] (low-dose hGH added to standard treatment) is recorded as “significantly improved”. Also, the “Plasma IGF-1 and IGF-BP3 levels” value with IGF-1 and IGF-BP3 was “increase”. Moreover, in data set [5], the “Mean levels of hGH reached” value is 0.4 ng/mL.
